Reference: publication PMC9154192 (PLoS Biology, 2022)
Read-outs that look alike come from different tables or passages of the source. Marks after values point to notes of the source that are not given here.

Assay type: in vivo, SD rats
Description: Toxicity studies were conducted at Biotoxtech (Korea) under review and approval from IACUC (170842, 180144, 170889) of Biotoxtech. All animals used in the toxicity test were purchased from OrientBio (Korea).
A subchronic toxicity study was performed for PP2S. Female and male rats were divided into a control group (0 mg/kg/day, n = 15), a low-dose group (167 mg/kg/day, n = 10), a medium-dose group (500 mg/kg/day, n = 10), and a high-dose group (1,500 mg/kg/day, n = 15), respectively. Thus, there were a total of 8 groups. The drug was administered by oral gavage at 10 mL/kg body weight daily for 4 weeks. Five animals each in the control and high-dose groups continued their treatments for 2 more weeks. Clinical symptoms were observed, and body weight was measured during the test period for a total of 6 weeks; 0.5% methyl cellulose 1,500 cP (Sigma, USA) in water for injection (JW Pharmaceutical, Korea) was used as a vehicle. Control animals were treated with only the same volume of the vehicle.
Organ weights were measured while conducting a 4-week repeated oral toxicity study for PP2S. For all animals, wet weight of the following organs were measured, and the relative organ weight ratio to the fasted body weight was calculated. Organs with left and right sides were weighed together. […] In addition, changes observed with statistical significance in females of the recovery group were minor changes, which were not observed in the main test group. They were not accompanied by other related changes. Thus, they were judged to have no toxicological significance.

[1] = female, 167 mg/kg, dosing period
[2] = female, 500 mg/kg, dosing period
[3] = female, 1,500 mg/kg, dosing period
[4] = female, 1,500 mg/kg, recovery period
[5] = male, 1,500 mg/kg, dosing period
[6] = male, 1,500 mg/kg, recovery period
[7] = up to 1,500 mg/kg/day oral, 4 weeks of administration and 2 weeks of recovery

## CCCCOc1ccc2cc(CN3C(=O)CC[C@H]3C(=O)OC)c3cc(OC)c(OC)cc3c2c1 [PP2S, Methyl (S)-1-((3-butoxy-6,7-dimethoxyphenanthren-9-yl)methyl)-5-oxopyrrolidine-2-carboxylate]
All administration groups, male and female, main test and recovery group
  effect on organ weights: effect of the test substance was not recognized
[1]
  B.W. (mean): 218.0 g
  Mean absolute organ weight, Adrenal: 0.0775 g
  Mean absolute organ weight, Heart: 0.87 g
  Mean absolute organ weight, Kidney: 1.77 g
  Mean absolute organ weight, Liver: 6.63 g
  Mean absolute organ weight, Lung: 1.09 g
  Mean absolute organ weight, Ovary: 0.0898 g
  Mean absolute organ weight, Pituitary: 0.0140 g
  Mean absolute organ weight, Spleen: 0.50 g
  Mean absolute organ weight, Uterus: 0.52 g
  Mean relative organ weight, Adrenal: 0.0357 g/100g body weight
  Mean relative organ weight, Brain: 0.83 g/100g body weight
  Mean relative organ weight, Heart: 0.40 g/100g body weight
  Mean relative organ weight, Kidney: 0.81 g/100g body weight
  Mean relative organ weight, Liver: 3.05 g/100g body weight
  Mean relative organ weight, Lung: 0.50 g/100g body weight
  Mean relative organ weight, Ovary: 0.0410 g/100g body weight
  Mean relative organ weight, Pituitary: 0.0065 g/100g body weight
  Mean relative organ weight, Spleen: 0.23 g/100g body weight
  Mean relative organ weight, Uterus: 0.24 g/100g body weight
[2]
  B.W. (mean): 224.1 g
  Mean absolute organ weight, Adrenal: 0.0755 g
  Mean absolute organ weight, Heart: 0.89 g
  Mean absolute organ weight, Kidney: 1.70 g
  Mean absolute organ weight, Liver: 6.67 g
  Mean absolute organ weight, Lung: 1.10 g
  Mean absolute organ weight, Ovary: 0.0846 g
  Mean absolute organ weight, Pituitary: 0.0139 g
  Mean absolute organ weight, Spleen: 0.47 g
  Mean absolute organ weight, Uterus: 0.53 g
  Mean relative organ weight, Adrenal: 0.0337 g/100g body weight
  Mean relative organ weight, Brain: 0.78 g/100g body weight
  Mean relative organ weight, Heart: 0.40 g/100g body weight
  Mean relative organ weight, Kidney: 0.76 g/100g body weight
  Mean relative organ weight, Liver: 2.97 g/100g body weight
  Mean relative organ weight, Lung: 0.49 g/100g body weight
  Mean relative organ weight, Ovary: 0.0381 g/100g body weight
  Mean relative organ weight, Pituitary: 0.0062 g/100g body weight
  Mean relative organ weight, Spleen: 0.21 g/100g body weight
  Mean relative organ weight, Uterus: 0.24 g/100g body weight
[3]
  B.W. (mean): 217.3 g
  Mean absolute organ weight, Adrenal: 0.0730 g
  Mean absolute organ weight, Brain: 1.86 g
  Mean absolute organ weight, Heart: 0.84 g
  Mean absolute organ weight, Kidney: 1.72 g
  Mean absolute organ weight, Liver: 6.49 g
  Mean absolute organ weight, Lung: 1.11 g
  Mean absolute organ weight, Ovary: 0.0874 g
  Mean absolute organ weight, Pituitary: 0.0139 g
  Mean absolute organ weight, Spleen: 0.48 g
  Mean absolute organ weight, Uterus: 0.47 g
  Mean relative organ weight, Adrenal: 0.0335 g/100g body weight
  Mean relative organ weight, Brain: 0.84 g/100g body weight
  Mean relative organ weight, Heart: 0.38 g/100g body weight
  Mean relative organ weight, Kidney: 0.79 g/100g body weight
  Mean relative organ weight, Liver: 2.98 g/100g body weight
  Mean relative organ weight, Lung: 0.51 g/100g body weight
  Mean relative organ weight, Ovary: 0.0402 g/100g body weight
  Mean relative organ weight, Pituitary: 0.0064 g/100g body weight
  Mean relative organ weight, Spleen: 0.22 g/100g body weight
  Mean relative organ weight, Uterus: 0.22 g/100g body weight
[4]
  B.W. (mean): 248.7 g
  Mean absolute organ weight, Adrenal: 0.0723 g
  Mean absolute organ weight, Brain: 1.86 g
  Mean absolute organ weight, Heart: 0.91 g
  Mean absolute organ weight, Kidney: 1.73 g
  Mean absolute organ weight, Liver: 7.01 * g
  Mean absolute organ weight, Lung: 1.17 * g
  Mean absolute organ weight, Ovary: 0.1012 g
  Mean absolute organ weight, Pituitary: 0.0154 g
  Mean absolute organ weight, Spleen: 0.54 g
  Mean absolute organ weight, Uterus: 0.54 g
  Mean relative organ weight, Adrenal: 0.0291 g/100g body weight
  Mean relative organ weight, Brain: 0.75 g/100g body weight
  Mean relative organ weight, Heart: 0.37 g/100g body weight
  Mean relative organ weight, Kidney: 0.69 g/100g body weight
  Mean relative organ weight, Liver: 2.81 g/100g body weight
  Mean relative organ weight, Lung: 0.48 g/100g body weight
  Mean relative organ weight, Ovary: 0.0407 g/100g body weight
  Mean relative organ weight, Pituitary: 0.0062 g/100g body weight
  Mean relative organ weight, Spleen: 0.22 g/100g body weight
  Mean relative organ weight, Uterus: 0.22 g/100g body weight
male, 167 mg/kg, dosing period
  B.W. (mean): 363.4 g
  Mean absolute organ weight, Adrenal: 0.0619 g
  Mean absolute organ weight, Brain: 1.79 g
  Mean absolute organ weight, Heart: 1.33 g
  Mean absolute organ weight, Kidney: 2.59 g
  Mean absolute organ weight, Liver: 10.38 g
  Mean absolute organ weight, Lung: 1.42 g
  Mean absolute organ weight, Pituitary: 0.0109 g
  Mean absolute organ weight, Prostate: 0.40 g
  Mean absolute organ weight, Spleen: 0.69 g
  Mean absolute organ weight, Testis: 3.22 g
  Mean relative organ weight, Adrenal: 0.0170 g/100g body weight
  Mean relative organ weight, Brain: 0.54 g/100g body weight
  Mean relative organ weight, Heart: 0.37 g/100g body weight
  Mean relative organ weight, Kidney: 0.72 g/100g body weight
  Mean relative organ weight, Liver: 2.86 g/100g body weight
  Mean relative organ weight, Lung: 0.39 g/100g body weight
  Mean relative organ weight, Pituitary: 0.0030 g/100g body weight
  Mean relative organ weight, Prostate: 0.11 g/100g body weight
  Mean relative organ weight, Spleen: 0.19 g/100g body weight
  Mean relative organ weight, Testis: 0.89 g/100g body weight
male, 500 mg/kg, dosing period
  B.W. (mean): 363.5 g
  Mean absolute organ weight, Adrenal: 0.0622 g
  Mean absolute organ weight, Brain: 1.74 g
  Mean absolute organ weight, Heart: 1.31 g
  Mean absolute organ weight, Kidney: 2.67 g
  Mean absolute organ weight, Liver: 10.46 g
  Mean absolute organ weight, Lung: 1.41 g
  Mean absolute organ weight, Pituitary: 0.0119 g
  Mean absolute organ weight, Prostate: 0.49 g
  Mean absolute organ weight, Spleen: 0.69 g
  Mean absolute organ weight, Testis: 3.32 g
  Mean relative organ weight, Adrenal: 0.0171 g/100g body weight
  Mean relative organ weight, Brain: 0.55 g/100g body weight
  Mean relative organ weight, Heart: 0.36 g/100g body weight
  Mean relative organ weight, Kidney: 0.74 g/100g body weight
  Mean relative organ weight, Liver: 2.87 g/100g body weight
  Mean relative organ weight, Lung: 0.39 g/100g body weight
  Mean relative organ weight, Pituitary: 0.0033 g/100g body weight
  Mean relative organ weight, Prostate: 0.14 g/100g body weight
  Mean relative organ weight, Spleen: 0.19 g/100g body weight
  Mean relative organ weight, Testis: 0.91 g/100g body weight
[5]
  B.W. (mean): 366.0 g
  Mean absolute organ weight, Adrenal: 0.0630 g
  Mean absolute organ weight, Brain: 1.81 g
  Mean absolute organ weight, Heart: 1.33 g
  Mean absolute organ weight, Kidney: 2.63 g
  Mean absolute organ weight, Liver: 10.79 g
  Mean absolute organ weight, Lung: 1.45 g
  Mean absolute organ weight, Pituitary: 0.0113 g
  Mean absolute organ weight, Prostate: 0.45 g
  Mean absolute organ weight, Spleen: 0.74 g
  Mean absolute organ weight, Testis: 3.35 g
  Mean relative organ weight, Adrenal: 0.0172 g/100g body weight
  Mean relative organ weight, Brain: 0.54 g/100g body weight
  Mean relative organ weight, Heart: 0.37 g/100g body weight
  Mean relative organ weight, Kidney: 0.72 g/100g body weight
  Mean relative organ weight, Liver: 2.94 g/100g body weight
  Mean relative organ weight, Lung: 0.40 g/100g body weight
  Mean relative organ weight, Pituitary: 0.0031 g/100g body weight
  Mean relative organ weight, Prostate: 0.12 g/100g body weight
  Mean relative organ weight, Spleen: 0.20 g/100g body weight
  Mean relative organ weight, Testis: 0.92 g/100g body weight
[6]
  B.W. (mean): 419.4 g
  Mean absolute organ weight, Adrenal: 0.0595 g
  Mean absolute organ weight, Heart: 1.36 g
  Mean absolute organ weight, Kidney: 2.73 g
  Mean absolute organ weight, Liver: 11.62 g
  Mean absolute organ weight, Lung: 1.61 g
  Mean absolute organ weight, Prostate: 0.59 g
  Mean absolute organ weight, Spleen: 0.72 g
  Mean absolute organ weight, Testis: 3.48 g
  Mean relative organ weight, Adrenal: 0.0140 g/100g body weight
  Mean relative organ weight, Brain: 0.48 g/100g body weight
  Mean relative organ weight, Heart: 0.33 g/100g body weight
  Mean relative organ weight, Kidney: 0.65 g/100g body weight
  Mean relative organ weight, Liver: 2.76 g/100g body weight
  Mean relative organ weight, Lung: 0.38 g/100g body weight
  Mean relative organ weight, Pituitary: 0.0028 g/100g body weight
  Mean relative organ weight, Prostate: 0.14 g/100g body weight
  Mean relative organ weight, Spleen: 0.17 g/100g body weight
  Mean relative organ weight, Testis: 0.83 g/100g body weight
Up to 1,500 mg/kg/day oral, 4 weeks
  organ weight/histopathological changes: no organ weight/histopathological changes were observed
[7]
  change in body weight compared to control group: did not lead to a significant change
  death or abnormal clinical symptoms: did not cause death or abnormal clinical symptoms
